Assay results from PMC5589637, “New perspectives of cobalt tris(bipyridine) system: anti-cancer effect and its collateral sensitivity towards multidrug-resistant (MDR) cancers” (Oncotarget, 2017).

What was measured:
[1] = tested on: A2780 cisplatin-sensitive cancer cells; assay: MTT cytotoxicity, cisplatin-sensitive A2780; assay type: cell-based; settings: 72 h
From the text: (§1) All cells were obtained from the American Type Culture Collection (Rockville, MD, USA) unless otherwise specified. Immortalized wild-type and Atg7-deficient mouse embryonic fibroblasts (MEFs) were kindly provided by Professor Masaaki Komatsu (Juntendo University, School of Medicine, Japan). Taxol-resistant types of MCF-7, HCT-8, A549 cancers cells and cisplatin-resistant SGC7901 cancer cells were purchased from KeyGEN BioTECH, China. Cisplatin-sensitive or –resistant A2780, OV2008 and C13 cancer cells were kindly provided by Prof. Benjamin Tsang (Department of Obstetrics and Gynecology and Department of Cellular and Molecular Medicine, University of Ottawa, Canada). HCT116 p53^+/+ and p53^−/− isogenic human colon cancer cells were kindly provided by Professor Bert Vogelstein (Ludwig Center at Johns Hopkins, Howard Hughes Medical Institute, USA). All media were supplemented with 10% fetal bovine serum and antibiotics penicillin (50 U/ml) and streptomycin (50 μg/ml; Invitrogen, Paisley, Scotland, UK). All cell cultures were incubated at 37°C in a 5% humidified CO2 incubator.
(§2) All tested compounds were dissolved in DMSO at a final concentration of 50 mmol/L and stored at −20°C before use. Cytotoxicity was assessed by using the 3-(4,5-dimethylthiazol-2-yl)-2, 5-diphenyltetrazolium bromide (MTT) (5.0 mg/ml) assay as previously described. Briefly, 4×10^3 cells per well were seeded in 96-well plates before drug treatments. After overnight culture, the cells were then exposed to different concentrations of selected compounds ([…]) for 72 hours. Cells without drug treatment were used as control. Subsequently, MTT (10 μL) solution was added to each well and incubated at 37°C for 4 hours followed by the addition of 100 μL solubilization buffer (10%SDS in 0.01 mol/L HCl) and overnight incubation. A570 nm was then determined in each well on the next day. The percentage of cell viability was calculated using the following formula: Cell viability (%) = Atreated/Acontrol × 100. Data were obtained from three independent experiments.

[2] = tested on: SGC-7901 cisplatin-sensitive cancer cells; assay: MTT cytotoxicity, cisplatin-sensitive SGC-7901; assay type: cell-based; settings: 72 h
From the text: as §1, §2

[3] = tested on: SGC-7901 cisplatin-resistant cancer cells; assay: MTT cytotoxicity, cisplatin-resistant SGC-7901; assay type: cell-based
From the text: as §1, §2

[4] = tested on: C13 (cisplatin-resistant) cells; assay: MTT cytotoxicity, C13 (cisplatin-resistant); assay type: cell-based
From the text: as §1, §2

[5] = tested on: OV2008 (cisplatin-sensitive) cells; assay: MTT cytotoxicity, OV2008 (cisplatin-sensitive); assay type: cell-based; settings: 72 h, read-out: IC50 value, cisplatin-sensitive cancer, OV2008
From the text: as §1, §2

[6] = tested on: A2780 cisplatin-resistant cancer cells; assay: MTT cytotoxicity, cisplatin-resistant A2780; assay type: cell-based
From the text: as §1, §2

[7] = tested on: cisplatin-resistant cancer cells (A2780, SGC-7901, OV2008 and C13); assay: MTT cytotoxicity, summary over cisplatin-sensitive/resistant pairs; assay type: cell-based; settings: over A2780, SGC-7901, OV2008/C13 pairs
Method: as §2

[8] = Pharmacokinetic study (HPLC-MS of blood samples); assay type: in vivo; settings: male C57BL/6 mice
Method: Pharmacokinetic study of cobalt complex 2 was performed in male C57BL/6 mice by the dosage of 40 mg/kg. The source of mouse and practice of husbandry were the same as described in the methodology section of LLC-1 Xenograft Tumor experiment. Cobalt complex 2 was diluted in the formula (PEG400: H2O: Ethanol = 6:3:1) and administered by intraperitoneal in a volume of 0.005 mL/g bodyweight. After dosing, blood samples were collected to sodium heparin anticoagulant tube at different time points (5, 15, 30 min, and then 1, 2, 4, 8, 12 and 24 hours); 4 mice were used for each time point. Approximately 200 μL of blood was collected via orbital vein from each anesthetized mouse by isoflurane. Plasma was separated by centrifugation at 3000 g for 10 minutes at 4°C. The plasma was protected and stored at −80°C until analyzed by liquid chromatography-mass spectrometry/mass spectrometry (LC-MS/MS) for quantification.
Plasma samples were thawed at room temperature and then vortexed to ensure sample solution homogeneity. Firstly, a 20 μL aliquot of each plasma sample were loaded into 1.5 mL tube, 100 μL acetonitrile was added, vortexed then centrifuged at 13000 rpm for 10 min. the supernatant was collected. The plasma cobalt complex 2 concentrations were quantified using Thermo HPLC Ultimate 3000 system. The compound in plasma samples were analyzed by using the Agilent Zorbax Eclipse Plus C-18 column with a particle size of 1.8 μm. The parameters of the gradient elution program were applied as follows: mobile phase A (0.1% formic acid in water) and mobile phase B acetonitrile: 0–5.5 min, 20% B; 5.5–7 min, 90% B; 7–10 min, 20% B. The column and autosampler temperature were maintained at 40 and 4 °C, respectively. The gas temperature was set 320 °C with flow rate (0.8 mL/min), gases were set at 10 psi for the nebulizer, capillary, 3500 V.

[9] = tested on: HCT-8 taxol-sensitive cancer cells; assay: MTT cytotoxicity, taxol-sensitive HCT-8; assay type: cell-based; settings: Homo sapiens, 72 h
From the text: as §1, §2

[10] = tested on: A549 taxol-sensitive cancer cells; assay: MTT cytotoxicity, taxol-sensitive A549; assay type: cell-based; settings: Homo sapiens, 72 h
From the text: as §1, §2

[11] = tested on: taxol-resistant MCF-7, HCT-8, and A549 cancer cells; assay: MTT cytotoxicity, summary over taxol-sensitive/resistant MCF-7, HCT-8 and A549 pairs; assay type: cell-based; settings: IC50 of taxol-resistant over taxol-sensitive cells; over MCF-7, HCT-8 and A549
Method: as §2

[12] = tested on: MCF-7 taxol-resistant cancer cells; assay: MTT cytotoxicity, taxol-resistant MCF-7; assay type: cell-based
From the text: as §1, §2

[13] = tested on: MCF-7 taxol-sensitive cancer cells; assay: MTT cytotoxicity, taxol-sensitive MCF-7; assay type: cell-based; settings: Homo sapiens, MCF7, 72 h
From the text: as §1, §2

[14] = tested on: HCT-8 taxol-resistant cancer cells; assay: MTT cytotoxicity, taxol-resistant HCT-8; assay type: cell-based
From the text: as §1, §2

[15] = tested on: A549 taxol-resistant cancer cells; assay: MTT cytotoxicity, taxol-resistant A549; assay type: cell-based
From the text: as §1, §2

N.N.[Cl][Pt][Cl] [Cisplatin, cis-[Pt^II(NH3)2Cl2], reference compound]
IC50 [1]: 15.1 µM
IC50 [2]: 3.92 µM
IC50 ([3]; SGC-7901 cisplatin-resistant, MTT, 72 h): 43 µM
Resistant Factor, SGC-7901 ([3]; cisplatin-resistant over cisplatin-sensitive IC50, SGC-7901): 10.97
IC50 ([4]; C13 (cisplatin-resistant), MTT, 72 h, read-out: IC50 value, cisplatin-resistant cancer, C13): > 200 µM
Resistant Factor, OV2008/C13 pair ([4]; C13 (resistant) IC50 over OV2008 (sensitive) IC50): > 11.0
IC50 [5]: 18.2 µM
IC50 ([6]; A2780 cisplatin-resistant, MTT, 72 h): > 200 µM
Resistant Factor, A2780 ([6]; cisplatin-resistant over cisplatin-sensitive IC50, A2780): > 13.25
resistant factor in cisplatin-resistant cancers (summary) [7]: up to 13.25

Cc1ccnc(-c2cc(C)ccn2)c1 [Me2-bpy]
species detected in blood samples by HPLC-MS ([8]; 40 mg/kg intraperitoneal of complex 2, 5 min to 24 hours): only the free ligand of Me2-bpy was detected
free ligand signal (m/z 185.1071) in samples after 2-hour time interval ([8]; 40 mg/kg intraperitoneal of complex 2, after 2 hours): very weak or no detectable signal

CC(=O)O[C@H]1C(=O)[C@@]2(C)[C@H]([C@H](OC(=O)c3ccccc3)[C@]3(O)C[C@H](OC(=O)[C@H](O)[C@@H](NC(=O)c4ccccc4)c4ccccc4)C(C)=C1C3(C)C)[C@]1(OC(C)=O)CO[C@@H]1C[C@@H]2O [Taxol, reference compound]
IC50 [9]: 12.6 µM
IC50 [10]: 1.56 µM
resistant factor in taxol-resistant cancers (summary) [11]: up to 42.4
IC50 ([12]; Homo sapiens, MCF7, MCF-7 taxol-resistant, MTT, 72 h): 55 µM
Resistant Factor, MCF-7 ([12]; IC50 of taxol-resistant cells over IC50 of taxol-sensitive cells, MCF-7): 4.51
IC50 [13]: 12.2 µM
IC50 ([14]; Homo sapiens, HCT-8 taxol-resistant, MTT, 72 h): > 200 µM
Resistant Factor, HCT-8 ([14]; IC50 of taxol-resistant cells over IC50 of taxol-sensitive cells, HCT-8): >15.9
IC50 ([15]; Homo sapiens, A549 taxol-resistant, MTT, 72 h): 66.1 µM
Resistant Factor, A549 ([15]; IC50 of taxol-resistant cells over IC50 of taxol-sensitive cells, A549): 42.4
